Converted amounts (≈) assume the structure as drawn. The source made the active and inactive calls. No cut-off for these calls is given here.
Columns and labels:
[1] = Half life in Sprague-Dawley rat at 10 mg/kg, sc; format: ADME, organism-based; parameters: dose 10 mg/kg, route subcutaneous; conditions: in vivo
[2] = Aqueous solubility of the compound at pH 6.5; format: physicochemical
[3] = AUC in Sprague-Dawley rat at 10 mg/kg, sc; format: ADME, organism-based; parameters: dose 10 mg/kg, route subcutaneous; conditions: plasma
[4] = AUC in Sprague-Dawley rat at 6 mg/kg, po; format: ADME, organism-based; parameters: dose 6 mg/kg, route oral; conditions: plasma
[5] = molecular target: T1, Cytochrome P450 2C8 (Homo sapiens, UniProt P10632); assay: Inhibition of CYP2C8 (unknown origin) at 3 uM; format: ADME
T1 sequence (P10632 whole entry): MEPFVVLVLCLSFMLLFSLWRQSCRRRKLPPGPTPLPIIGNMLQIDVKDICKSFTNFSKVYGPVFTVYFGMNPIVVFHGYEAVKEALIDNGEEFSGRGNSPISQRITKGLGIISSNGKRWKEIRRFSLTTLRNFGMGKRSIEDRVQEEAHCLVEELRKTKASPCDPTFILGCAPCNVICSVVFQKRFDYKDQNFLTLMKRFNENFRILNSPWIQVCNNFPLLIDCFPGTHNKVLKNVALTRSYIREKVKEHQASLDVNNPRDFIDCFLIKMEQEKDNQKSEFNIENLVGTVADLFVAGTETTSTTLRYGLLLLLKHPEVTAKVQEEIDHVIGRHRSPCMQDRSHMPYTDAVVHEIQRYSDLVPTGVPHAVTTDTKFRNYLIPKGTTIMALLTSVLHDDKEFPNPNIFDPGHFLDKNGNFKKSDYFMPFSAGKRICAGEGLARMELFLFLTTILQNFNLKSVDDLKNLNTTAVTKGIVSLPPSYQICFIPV

[6] = test system: Rattus norvegicus; assay: Increase in levator ani muscle weight in orchidectomized Sprague-Dawley rat at 3 to 30 mg/kg, sc qd for 4 days relative to vehicle-treated control; format: functional, organism-based
[7] = Bioavailability in Sprague-Dawley rat at 10 mg/kg, sc; format: ADME, organism-based; conditions: in vivo
[8] = molecular target: Cytochrome P450 2D6 (Homo sapiens, UniProt P10635); assay: Inhibition of CYP2D6 (unknown origin) at 3 uM; format: ADME
Cytochrome P450 2D6, sequence (P10635 whole entry): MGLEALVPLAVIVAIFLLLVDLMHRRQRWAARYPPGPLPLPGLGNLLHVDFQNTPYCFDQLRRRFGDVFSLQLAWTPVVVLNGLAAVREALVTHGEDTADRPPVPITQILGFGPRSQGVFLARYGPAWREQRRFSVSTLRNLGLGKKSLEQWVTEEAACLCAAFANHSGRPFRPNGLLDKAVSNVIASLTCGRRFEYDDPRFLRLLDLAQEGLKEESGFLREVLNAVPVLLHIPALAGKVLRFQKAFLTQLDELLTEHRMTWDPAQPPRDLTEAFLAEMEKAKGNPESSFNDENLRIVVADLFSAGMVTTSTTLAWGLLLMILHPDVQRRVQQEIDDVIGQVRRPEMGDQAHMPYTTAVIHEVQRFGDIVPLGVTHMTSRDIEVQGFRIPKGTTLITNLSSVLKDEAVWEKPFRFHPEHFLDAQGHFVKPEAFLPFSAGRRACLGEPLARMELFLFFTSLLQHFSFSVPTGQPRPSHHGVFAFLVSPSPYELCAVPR

[9] = Half life in Sprague-Dawley rat at 2 mg/kg, iv; format: ADME, organism-based; parameters: dose 2 mg/kg, route intravenous; conditions: in vivo
[10] = test system: Rattus norvegicus; assay: Toxicity in Sprague-Dawley rat assessed as effect on serum LDL level at 3 to 100 mg/kg, sc qd for 14 days relative to vehicle-treated control; format: organism-based; parameters: dose 3-100 mg/kg, route subcutaneous; conditions: in vivo, 336 h
[11] = molecular target: Cytochrome P450 2C9 (Homo sapiens, UniProt P11712); assay: Inhibition of CYP2C9 (unknown origin) at 3 uM; format: ADME
Cytochrome P450 2C9, sequence (P11712 whole entry): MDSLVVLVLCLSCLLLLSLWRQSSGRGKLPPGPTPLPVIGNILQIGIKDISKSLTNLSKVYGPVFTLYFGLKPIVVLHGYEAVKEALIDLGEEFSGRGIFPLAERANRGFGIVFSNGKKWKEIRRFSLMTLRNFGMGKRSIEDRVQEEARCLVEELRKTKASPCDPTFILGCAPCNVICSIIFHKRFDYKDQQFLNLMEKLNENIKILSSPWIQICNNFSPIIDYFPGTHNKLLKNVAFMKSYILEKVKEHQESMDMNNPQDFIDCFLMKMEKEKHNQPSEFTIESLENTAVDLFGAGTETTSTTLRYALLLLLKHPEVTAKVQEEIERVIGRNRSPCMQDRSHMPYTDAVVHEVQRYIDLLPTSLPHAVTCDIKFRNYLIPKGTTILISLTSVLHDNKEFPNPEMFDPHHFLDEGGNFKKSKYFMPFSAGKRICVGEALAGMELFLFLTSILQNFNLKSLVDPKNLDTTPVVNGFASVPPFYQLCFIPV

[12] = test system: Rattus norvegicus; assay: Toxicity in Sprague-Dawley rat assessed as effect on serum HDL level at 3 to 100 mg/kg, sc qd for 14 days relative to vehicle-treated control; format: organism-based; parameters: dose 3-100 mg/kg, route subcutaneous; conditions: in vivo, 336 h
[13] = test system: Rattus norvegicus; assay: Toxicity in Sprague-Dawley rat assessed as effect on serum luteinizing hormone level at 100 mg/kg, sc qd for 14 days relative to vehicle-treated control; format: organism-based; parameters: dose 100 mg/kg, route subcutaneous; conditions: in vivo, 336 h
[14] = Tmax in Sprague-Dawley rat at 6 mg/kg, po; format: ADME, organism-based; parameters: dose 6 mg/kg, route oral; conditions: in vivo
[15] = AUC in Sprague-Dawley rat at 2 mg/kg, iv; format: ADME, organism-based; parameters: dose 2 mg/kg, route intravenous; conditions: plasma
[16] = Cmax in Sprague-Dawley rat at 10 mg/kg, sc; format: ADME, organism-based; parameters: dose 10 mg/kg, route subcutaneous; conditions: in vivo
[17] = molecular target: T2, Androgen receptor (Homo sapiens, UniProt P10275); assay: Binding affinity to human AR NTD (1 to 561 aa) expressed in CV1 cells coexpressing human AR-LBD (644-919 aa) assessed as N/C-termini interaction by androgenic assay; format: cell-based, CV-1
T2 sequence (P10275 whole entry): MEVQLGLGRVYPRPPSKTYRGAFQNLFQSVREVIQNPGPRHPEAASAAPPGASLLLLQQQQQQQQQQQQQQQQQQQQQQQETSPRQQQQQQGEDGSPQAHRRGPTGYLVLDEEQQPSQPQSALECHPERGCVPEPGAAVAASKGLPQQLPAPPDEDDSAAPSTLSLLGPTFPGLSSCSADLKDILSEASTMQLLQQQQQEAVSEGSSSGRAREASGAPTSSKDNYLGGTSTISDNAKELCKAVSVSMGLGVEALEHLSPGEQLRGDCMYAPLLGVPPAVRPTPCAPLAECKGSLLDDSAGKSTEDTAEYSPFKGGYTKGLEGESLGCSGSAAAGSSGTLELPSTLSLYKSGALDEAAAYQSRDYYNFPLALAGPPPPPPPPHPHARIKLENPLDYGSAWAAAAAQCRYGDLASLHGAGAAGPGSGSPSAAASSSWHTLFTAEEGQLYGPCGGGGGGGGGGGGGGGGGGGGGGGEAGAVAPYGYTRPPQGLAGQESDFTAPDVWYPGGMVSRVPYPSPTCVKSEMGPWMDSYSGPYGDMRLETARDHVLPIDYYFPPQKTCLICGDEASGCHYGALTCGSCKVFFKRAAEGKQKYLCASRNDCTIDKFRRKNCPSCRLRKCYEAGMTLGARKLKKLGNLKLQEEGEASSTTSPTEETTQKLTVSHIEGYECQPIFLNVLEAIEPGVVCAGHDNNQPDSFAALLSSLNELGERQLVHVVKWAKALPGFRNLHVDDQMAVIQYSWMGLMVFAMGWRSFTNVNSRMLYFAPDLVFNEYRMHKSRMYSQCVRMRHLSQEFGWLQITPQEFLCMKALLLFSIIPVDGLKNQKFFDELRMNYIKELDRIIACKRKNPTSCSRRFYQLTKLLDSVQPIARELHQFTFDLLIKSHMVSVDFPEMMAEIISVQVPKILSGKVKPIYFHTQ

[18] = Tmax in Sprague-Dawley rat at 10 mg/kg, sc; format: ADME, organism-based; parameters: dose 10 mg/kg, route subcutaneous; conditions: in vivo
[19] = molecular target: T3, Cytochrome P450 1A2 (Homo sapiens, UniProt P05177); assay: Inhibition of CYP1A2 (unknown origin) at 3 uM; format: ADME
T3 sequence (P05177 whole entry): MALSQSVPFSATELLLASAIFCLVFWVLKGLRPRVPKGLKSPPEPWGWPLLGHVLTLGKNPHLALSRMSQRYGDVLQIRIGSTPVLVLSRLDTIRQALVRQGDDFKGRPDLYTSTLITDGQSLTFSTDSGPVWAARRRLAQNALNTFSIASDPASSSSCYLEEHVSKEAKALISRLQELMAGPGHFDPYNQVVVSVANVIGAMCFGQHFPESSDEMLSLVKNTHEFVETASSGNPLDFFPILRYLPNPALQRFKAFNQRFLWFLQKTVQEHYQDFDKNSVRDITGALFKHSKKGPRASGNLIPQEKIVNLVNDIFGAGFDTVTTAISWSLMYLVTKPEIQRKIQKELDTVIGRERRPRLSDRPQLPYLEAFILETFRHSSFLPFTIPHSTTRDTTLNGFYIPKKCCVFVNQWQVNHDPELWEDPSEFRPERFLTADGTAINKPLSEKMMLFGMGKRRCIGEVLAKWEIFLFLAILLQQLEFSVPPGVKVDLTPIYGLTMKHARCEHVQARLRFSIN

[20] = Toxicity in sc dosed Sprague-Dawley rat administered qd for 14 days; format: organism-based; conditions: in vivo
[21] = test system: Rattus norvegicus; assay: Toxicity in Sprague-Dawley rat assessed as effect on serum luteinizing hormone level at 3 to 10 mg/kg, sc qd for 14 days relative to vehicle-treated control; format: organism-based; parameters: dose 3-10 mg/kg, route subcutaneous; conditions: in vivo, 336 h
[22] = Oral bioavailability in Sprague-Dawley rat at 6 mg/kg; format: ADME, organism-based; conditions: in vivo
[23] = test system: Rattus norvegicus; assay: Increase in prostate tissue weight in orchidectomized Sprague-Dawley rat at 3 to 30 mg/kg, sc qd for 4 days relative to vehicle-treated control; format: ADME, organism-based, Prostate gland; parameters: dose 3-30 mg/kg, route subcutaneous; conditions: in vivo, 96 h
[24] = molecular target: Voltage-gated inwardly rectifying potassium channel KCNH2 (Homo sapiens, UniProt Q12809); assay: Binding affinity to human ERG by dofetilide binding assay
Voltage-gated inwardly rectifying potassium channel KCNH2, sequence (Q12809 whole entry): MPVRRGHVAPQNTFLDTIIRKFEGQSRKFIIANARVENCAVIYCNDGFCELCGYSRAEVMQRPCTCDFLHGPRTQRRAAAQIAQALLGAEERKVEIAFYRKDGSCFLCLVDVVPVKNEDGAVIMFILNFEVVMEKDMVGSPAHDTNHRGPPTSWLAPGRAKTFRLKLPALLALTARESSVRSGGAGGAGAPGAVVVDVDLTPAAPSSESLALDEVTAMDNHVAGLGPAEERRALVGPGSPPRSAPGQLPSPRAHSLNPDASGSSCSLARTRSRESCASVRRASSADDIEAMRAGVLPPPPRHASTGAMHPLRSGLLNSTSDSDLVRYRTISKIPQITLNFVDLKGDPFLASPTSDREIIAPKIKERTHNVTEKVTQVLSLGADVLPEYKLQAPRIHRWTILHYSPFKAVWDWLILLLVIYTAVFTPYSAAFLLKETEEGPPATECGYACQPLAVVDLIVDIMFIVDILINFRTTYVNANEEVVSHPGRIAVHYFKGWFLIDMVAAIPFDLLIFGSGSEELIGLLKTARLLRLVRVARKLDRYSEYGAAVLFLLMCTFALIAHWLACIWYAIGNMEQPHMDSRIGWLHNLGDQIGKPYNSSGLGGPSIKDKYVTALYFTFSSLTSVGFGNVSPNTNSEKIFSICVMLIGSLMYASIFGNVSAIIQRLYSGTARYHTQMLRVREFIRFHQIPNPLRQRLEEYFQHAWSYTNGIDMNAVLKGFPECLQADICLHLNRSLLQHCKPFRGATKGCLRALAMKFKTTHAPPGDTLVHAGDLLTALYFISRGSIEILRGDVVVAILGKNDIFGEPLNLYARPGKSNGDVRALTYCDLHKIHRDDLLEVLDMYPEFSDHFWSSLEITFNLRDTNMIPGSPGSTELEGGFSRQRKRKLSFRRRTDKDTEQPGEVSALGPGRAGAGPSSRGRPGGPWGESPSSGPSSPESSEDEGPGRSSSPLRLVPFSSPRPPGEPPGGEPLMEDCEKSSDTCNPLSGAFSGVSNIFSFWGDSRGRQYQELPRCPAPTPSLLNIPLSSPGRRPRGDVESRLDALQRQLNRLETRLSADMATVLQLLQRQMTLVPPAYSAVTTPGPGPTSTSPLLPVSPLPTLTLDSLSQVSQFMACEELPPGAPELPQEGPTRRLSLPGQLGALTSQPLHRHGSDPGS

[25] = molecular target: T2, Androgen receptor; assay: Agonist activity at human AR expressed in CV1 cells after 17 hrs by luciferase reporter gene assay; format: cell-based, CV-1
[26] = Cytotoxicity against human THLE cells; format: cell-based
[27] = Cmax in Sprague-Dawley rat at 6 mg/kg, po; format: ADME, organism-based; parameters: dose 6 mg/kg, route oral; conditions: in vivo
[28] = test system: Rattus norvegicus; assay: Increase in seminal vesicle weight in orchidectomized Sprague-Dawley rat at 3 to 30 mg/kg, sc qd for 4 days relative to vehicle-treated control; format: ADME, organism-based; parameters: dose 3-30 mg/kg, route subcutaneous; conditions: in vivo, 96 h
[29] = test system: Rattus norvegicus; assay: Toxicity in Sprague-Dawley rat assessed as effect on serum total cholesterol level at 3 to 100 mg/kg, sc qd for 14 days relative to vehicle-treated control; format: organism-based; parameters: dose 3-100 mg/kg, route subcutaneous; conditions: in vivo, 336 h
[30] = Volume of distribution at steady state in Sprague-Dawley rat at 2 mg/kg, iv; format: ADME, organism-based; parameters: dose 2 mg/kg, route intravenous; conditions: in vivo, read-out: Vdss
[31] = test system: Rattus norvegicus; assay: Toxicity in Sprague-Dawley rat assessed as effect on serum triglyceride level at 3 to 100 mg/kg, sc qd for 14 days relative to vehicle-treated control; format: organism-based; parameters: dose 3-100 mg/kg, route subcutaneous; conditions: in vivo, 336 h
[32] = molecular target: T2, Androgen receptor; assay: Displacement of [3H]mibolerone from full length human AR expressed in COS cells after 3.5 hrs by liquid scintillation counting; format: cell-based
[33] = Half life in Sprague-Dawley rat at 6 mg/kg, po; format: ADME, organism-based; parameters: dose 6 mg/kg, route oral; conditions: in vivo
[34] = Clearance in human liver microsomes; format: ADME; conditions: read-out: CLH
[35] = molecular target: Cytochrome P450 3A4 (Homo sapiens, UniProt P08684); assay: Inhibition of CYP3A4 (unknown origin) at 3 uM; format: ADME
Cytochrome P450 3A4, sequence (P08684 whole entry): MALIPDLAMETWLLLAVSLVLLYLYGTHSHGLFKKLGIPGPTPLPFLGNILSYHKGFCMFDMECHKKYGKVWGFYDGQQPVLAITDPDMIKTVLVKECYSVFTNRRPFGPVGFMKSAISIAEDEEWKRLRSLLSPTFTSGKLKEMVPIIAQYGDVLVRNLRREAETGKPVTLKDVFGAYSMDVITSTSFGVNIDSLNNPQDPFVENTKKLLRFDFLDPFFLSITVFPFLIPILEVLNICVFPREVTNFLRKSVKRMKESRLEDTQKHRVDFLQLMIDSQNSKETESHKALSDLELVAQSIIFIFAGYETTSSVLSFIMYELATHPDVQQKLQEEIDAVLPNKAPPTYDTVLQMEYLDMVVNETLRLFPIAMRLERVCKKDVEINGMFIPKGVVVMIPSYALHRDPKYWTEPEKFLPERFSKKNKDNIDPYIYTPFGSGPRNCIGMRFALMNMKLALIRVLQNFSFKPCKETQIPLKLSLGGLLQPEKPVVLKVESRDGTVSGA

## C[C@](O)(COc1ccc(F)cc1)C(=O)N1CCc2c(C#N)cccc21
[1]
  half-life: 6 h
[2]
  solubility: 14 µM (≈ 4.76 µg/mL)
[3]
  AUC: 2030 ng·h/mL
[4]
  AUC: 3750 ng·h/mL
[5]
  inhibition (INH): Not Active
[6]
  Activity: Active
[7]
  bioavailability: 37%
[8]
  inhibition (INH): Not Active
[9]
  half-life: 5 h
[10]
  Activity: Non-toxic
[11]
  inhibition (INH): Not Active
[12]
  Activity: Non-toxic
[13]
  Activity: Non-toxic
[14]
  Tmax: 8 h
[15]
  AUC: 1100 ng·h/mL
[16]
  Cmax: 166 ng/mL
[17]
  EC50: > 10000 nM
[18]
  Tmax: 4 h
[19]
  inhibition (INH): Not Active
[20]
  MTD at 336 h: 100 mg/kg
[21]
  Activity: Non-toxic
[22]
  bioavailability: > 100%
[23]
  Activity: Non-toxic
[24]
  IC50: > 100000 nM
[25]
  EC50: 2.5 nM
[26]
  IC50: > 300000 nM
[27]
  Cmax: 254 ng/mL
[28]
  Activity: Non-toxic
[29]
  Activity: Non-toxic
[30]
  Vd: 6 L/kg
[31]
  Activity: Non-toxic
[32]
  IC50: 12.7 nM
[33]
  half-life: 5 h
[34]
  microsomal CLint: 21 µL/min/mg
[35]
  inhibition (INH): Not Active
